Data on 22 molecules can be found in ChEMBL document CHEMBL3400145, “Design and synthesis of piperazine derivatives as a novel class of γ-secretase modulators that selectively lower Aβ₄₂ production” (Bioorg Med Chem, 2015).

Data set [1] relates to neuronal. The experiment in a line: Inhibition of amyloid beta40 production in rat neuronal cells assessed as inflection point after 3 days by ELISA. Format: cell-based. (In an ELISA, binding on a coated surface is turned into a signal by an enzyme label.)
The nature of data set [2]: Metabolic stability in rat hepatic microsomes by LC/MS/MS analysis. The note with it: read-out: CLH. It counts as ADME, Liver, Microsome.
Data set [3] deals with neuronal. As to the kind of experiment: Inhibition of amyloid beta40 production in rat neuronal cells assessed as maximal inhibition at 3 uM after 3 days by ELISA. It counts as cell-based.
Data set [4] concerns Plasma. As to the kind of experiment: Reduction in soluble amyloid beta40 in C57BL/6J mouse plasma at 100 mg/kg, po after 3 hrs by ELISA relative to vehicle treated control. It counts as functional.
The subject of data set [5] is Mus musculus. As to the kind of experiment: AUC in C57BL/6J mouse at 1 mg/kg, po cassette dosing. It counts as ADME, organism-based, Plasma. The note with it: in vivo. Details: dose 1 mg/kg, route oral.
Data set [6] relates to Brain. As to the kind of experiment: Reduction in soluble amyloid beta42 in C57BL/6J mouse brain at 100 mg/kg, po after 3 hrs by ELISA relative to vehicle treated control. It counts as functional.
A short description of data set [7]: Volume of distribution at steady state in C57BL/6J mouse at 0.1 mg/kg, iv cassette dosing. Details: dose 0.1 mg/kg, route intravenous. The note with it: in vivo, read-out: Vdss. Format: ADME, organism-based.
The test system of data set [8] is Plasma. As to the kind of experiment: Reduction in soluble amyloid beta42 in C57BL/6J mouse plasma at 100 mg/kg, po after 3 hrs by ELISA relative to vehicle treated control. It counts as functional.
A short description of data set [9]: Cmax in C57BL/6J mouse at 1 mg/kg, po cassette dosing. Format: ADME, organism-based. Details: dose 1 mg/kg, route oral. The note with it: in vivo.
Data set [10] addresses Amyloid-beta precursor protein (Homo sapiens) (UniProt P05067). The experiment in a line: Inhibition of amyloid beta42 production in human IMR32 cell by ELISA. It counts as functional, cell-based. The settings on record: IMR-32.
Data set [11] concerns Mus musculus. The experiment in a line: Oral bioavailability in C57BL/6J mouse at 1 mg/kg cassette dosing. It counts as ADME, organism-based. The settings on record: in vivo.
Data set [12] addresses Amyloid-beta precursor protein (Homo sapiens) (UniProt P05067). As to the kind of experiment: Inhibition of amyloid beta40 production in human IMR32 cell by ELISA. The settings on record: IMR-32. Format: functional, cell-based.
A short description of data set [13]: Mean residence time in C57BL/6J mouse at 1 mg/kg, po cassette dosing. It counts as ADME, organism-based. Details: dose 1 mg/kg, route oral. The note with it: in vivo.
The test system of data set [14] is Brain. The experiment in a line: Reduction in soluble amyloid beta40 in C57BL/6J mouse brain at 100 mg/kg, po after 3 hrs by ELISA relative to vehicle treated control. Format: functional.
Data set [15] deals with IMR-32. As to the kind of experiment: Inhibition of total amyloid beta production in human IMR32 cell by ELISA. Format: functional, cell-based.

The structures appear in SMILES notation. Active and inactive are the calls of the source. The rule behind the calls is not given here.

Amyloid-beta precursor protein (Homo sapiens), sequence (P05067 whole entry): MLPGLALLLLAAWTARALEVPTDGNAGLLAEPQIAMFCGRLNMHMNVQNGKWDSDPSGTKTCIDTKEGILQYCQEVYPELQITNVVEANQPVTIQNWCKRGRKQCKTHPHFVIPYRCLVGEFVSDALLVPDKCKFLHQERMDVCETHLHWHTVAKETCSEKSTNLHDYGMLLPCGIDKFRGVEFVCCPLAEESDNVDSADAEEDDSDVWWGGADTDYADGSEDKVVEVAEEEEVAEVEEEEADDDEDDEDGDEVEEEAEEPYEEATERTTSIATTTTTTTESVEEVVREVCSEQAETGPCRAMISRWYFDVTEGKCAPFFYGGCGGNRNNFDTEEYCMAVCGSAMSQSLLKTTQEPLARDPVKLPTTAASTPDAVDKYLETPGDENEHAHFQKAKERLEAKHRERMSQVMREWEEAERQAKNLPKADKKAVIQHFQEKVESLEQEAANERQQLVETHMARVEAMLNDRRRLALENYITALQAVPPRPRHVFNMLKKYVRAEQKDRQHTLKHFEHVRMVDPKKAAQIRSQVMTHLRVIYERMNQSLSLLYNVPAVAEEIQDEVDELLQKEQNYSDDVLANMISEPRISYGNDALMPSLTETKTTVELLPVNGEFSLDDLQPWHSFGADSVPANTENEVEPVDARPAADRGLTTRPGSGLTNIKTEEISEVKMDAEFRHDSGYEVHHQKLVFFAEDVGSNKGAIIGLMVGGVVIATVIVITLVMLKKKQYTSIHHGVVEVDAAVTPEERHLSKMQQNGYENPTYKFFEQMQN

On to `COc1cc(N2CCN(C(=O)Cn3cnc4cccc(C(F)(F)F)c43)CC2)ccc1-c1cnc(C)o1`, for which the Activity in data set [1] stood at 420 nM. Moreover, the microsomal CLint in data set [2] stood at 7 µL/min/mg. Also, the inhibition (as a rule, the change of the read-out against control, counted positive when it falls) in data set [3] worked out at 46%.
On the same counts, the results for `COc1cc(N2CCN(C(=O)N[C@@H](C)c3cccc4ccccc34)C[C@H]2C)ccc1-c1cnc(C)o1` are 56 nM, 150 µL/min/mg and 65%.
In the case of `COc1cc(N2CCN(C(=O)N[C@@H](C)c3cccc4ccccc34)C[C@@H]2C)ccc1-c1cnc(C)o1`, the Activity in [1] was determined as 21 nM. Also, in [2], the microsomal CLint was determined as 150 µL/min/mg. Further, the inhibition in data set [3] was 64%.
On the same counts, the results for `COc1cc(N2CCN(C(=O)N[C@@H](C)c3cccc4ccccc34)CC2)ccc1-n1cc(C)nn1` are 450 nM, 230 µL/min/mg and 47%.
For the molecule `COc1cc(N2CCN(C(=O)N[C@@H](C)c3cccc4ccccc34)CC2)ccc1-c1cnn(C)c1`, in data set [1], the Activity amounted to 180 nM. Besides, the microsomal CLint in data set [2] was 150 µL/min/mg. In data set [3], the inhibition is 63%.
On the same counts, the results for `COc1cc(N2CCCN(C(=O)N[C@@H](C)c3cccc4ccccc34)CC2)ccc1-c1cnc(C)o1` are 38 nM, 240 µL/min/mg and 57%.
The corresponding values for `COc1cc(N2CCN(C(=O)Cn3nnc4ccccc43)CC2)ccc1-c1cnc(C)o1` are 210 nM, 27 µL/min/mg and 47%.
With `COc1cc(N2CCN(C(=O)Cn3cnc4cc(C(F)(F)F)ccc43)C[C@@H]2C)ccc1-c1cnc(C)o1`, the Activity in data set [1] was found to be 21 nM. Besides, the % of control at 100 mg/kg in [4] came to 106%; in [14], 105%. Further, the microsomal CLint in data set [2] was determined as 67 µL/min/mg. Besides, in data set [5], the area under the curve (AUC) (as a rule, the area under the concentration-time curve, a measure of exposure) came out at 3930 ng·h/mL. In addition, the inhibition in vivo (in general, how much of the control response was suppressed) at 100 mg/kg is 41% in data set [6] and 36% in data set [8]. The Vd in data set [7] stood at 0.36 L/kg. The highest level in [9] (Cmax) was 773 ng/mL. Besides, the inhibition in data set [3] was 60%; in [10], “Dose-dependent effect”. In data set [11], this molecule came in with an F of 46%. For the same molecule, the inhibition result in data set [12] and in data set [15] was “inactive” throughout. Also, the MRT (commonly a mean duration of stay, worked out from the concentration-time curve) in data set [13] was found to be 3.26 h.
With `COc1cc(N2CCN(C(=O)Cn3ccc4ccccc43)CC2)ccc1-c1cnc(C)o1`, in data set [1], the Activity came to 180 nM. The microsomal CLint in data set [2] came to 140 µL/min/mg. In data set [3], the inhibition is 50%.
On the same counts, the results for `COc1cc(N2CCN(C(=O)N[C@@H](C)c3cccc4ccccc34)CC2)ccc1-c1cnc(C)o1` are 34 nM, 130 µL/min/mg and 67%.
On the same counts, the results for `COc1cc(N2CCN(C(=O)Cn3ncc4ccccc43)CC2)ccc1-c1cnc(C)o1` are 170 nM, 77 µL/min/mg and 49%.
On the same counts, the results for `COc1cc(N2CCN(C(=O)Cn3cnc4cc(C(F)(F)F)ccc43)CC2)ccc1-c1cnc(C)o1` are 50 nM, 66 µL/min/mg and 61%.
For the molecule `COc1cc(N2CCN(C(=O)N[C@@H](C)c3cccc4ccccc34)CC2)ccc1-n1cnc(C)c1`, the Activity in data set [1] was found to be 56 nM. Besides, in data set [2], the microsomal CLint was 150 µL/min/mg. Moreover, the inhibition in vivo at 100 mg/kg in data set [6] stood at 4%; in data set [8], 16%. For the same molecule, the inhibition in data set [3] stood at 57%.
For `COc1cc(N2CCN(C(=O)CN3Cc4ccccc4C3)CC2)ccc1-c1cnc(C)o1`, the Activity in data set [1] worked out at 620 nM. Moreover, in data set [2], the microsomal CLint was found to be 42 µL/min/mg. The inhibition in data set [3] turned out to be 48%.
Regarding `COc1cc(N2CCN(C(=O)CN3CCc4ccccc43)CC2)ccc1-c1cnc(C)o1`, the Activity in data set [1] was 290 nM. The microsomal CLint in data set [2] was 160 µL/min/mg. Also, in data set [3], the inhibition worked out at 52%.
On the same counts, the results for `COc1cc(N2CCN(C(=O)NCc3cccc4ccccc34)CC2)ccc1-c1cnc(C)o1` are 50 nM, 160 µL/min/mg and 59%.
The corresponding values for `COc1cc(N2CCN(C(=O)Cn3cnc4c(C(F)(F)F)cccc43)CC2)ccc1-c1cnc(C)o1` are 110 nM, 12 µL/min/mg and 53%.
As for `COc1cc(N2CCN(C(=O)Cn3cnc4ccc(C(F)(F)F)cc43)C[C@@H]2C)ccc1-c1cnc(C)o1`, the Activity in data set [1] was 30 nM. Also, in data set [2], the microsomal CLint was found to be 50 µL/min/mg. Besides, the inhibition in data set [3] was found to be 46%.
On the same counts, the results for `COc1cc(N2CCN(C(=O)N[C@@H](C)c3cccc4ccccc34)CC2)ccc1-n1cnc(C)n1` are 170 nM, 110 µL/min/mg and 68%.
The corresponding values for `COc1cc(C2CCN(C(=O)N[C@@H](C)c3cccc4ccccc34)CC2)ccc1-c1cnc(C)o1` are 260 nM, 170 µL/min/mg and 61%.
On the same counts, the results for `COc1cc(N2CCN(C(=O)Cn3cnc4ccccc43)CC2)ccc1-c1cnc(C)o1` are 93 nM, 22 µL/min/mg and 71%.
With `COc1cc(N2CCN(C(=O)Cn3cnc4ccc(C(F)(F)F)cc43)CC2)ccc1-c1cnc(C)o1`, in data set [1], the Activity is 65 nM. For the same molecule, the microsomal CLint in data set [2] came to 23 µL/min/mg. Further, the inhibition in [3] was 50%.
